# Patent publication US6380198B1 (Laboratoire Medidom S.A., priority 1997, dated 2002)
# “And” between values parts separate entries of the source, which are not always exact repeats. Equal entries are not always repeated.
# What was measured:
# σ-1 receptors [1] = biological target: T1, σ-1 receptors (Oryctolagus cuniculus, UniProt G1SD54); assay: Inhibition of 3H(+)-N-allyl-nor-methazocine binding to irido-ciliary body membranes; design: species or system rabbit (New Zealand albino); settings: rabbit irido-ciliary body P2 membranes, 300 μg protein, 37° C., 150 minutes, duplicate
# T1 construct: cell membranes obtained from the irido-ciliary body complex; from tissue; host or cells: rabbit irido-ciliary body, P2 membrane fraction
# T1 sequence (G1SD54 1-223): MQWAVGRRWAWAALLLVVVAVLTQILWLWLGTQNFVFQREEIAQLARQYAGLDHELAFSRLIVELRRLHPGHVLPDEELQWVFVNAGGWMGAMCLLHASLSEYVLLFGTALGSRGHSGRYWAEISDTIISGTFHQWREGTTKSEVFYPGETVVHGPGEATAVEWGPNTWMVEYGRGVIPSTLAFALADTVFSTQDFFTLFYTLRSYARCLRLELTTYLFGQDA
# Description: The receptor binding technique was carried out on cell membranes obtained from the irido-ciliary body complex explanted, after sacrifice, from male albino rabbits of the New Zealand strain (Charles River Italiana, of Calco (CO)). The tissue was homogenised in buffer and the P2, fraction, rich in cell membrane proteins, was isolated. […] The La total protein concentration was determined with the Lowry method.
# The non specific binding was evaluated in presence of haloperidol.
# All tests were carried out in duplicate. The reaction was maintained at 37° C. for 150 minutes, followed by filtration on WhatmannGF/B filters. The radioactivity left on the filters was measured by liquid scintillation spectrometry.
# σ-1 receptors [2] = biological target: T1, σ-1 receptors; assay: [3H](+)-pentazocine receptor binding and competitive binding on irido-ciliary body membranes; design: species or system rabbit (New Zealand albino); settings: 300 μg membrane protein, 37° C., 150 minutes
# Excerpt: In order to identify the presence of a receptor sites in the eye the technique of “receptor binding” has been exploited. The latter has been carried out on cell membranes obtained from the irido-ciliary body complex. The irido-ciliary body complex had been explanted, after sacrifice, from male albino rabbits of the New Zealand strain. The tissue was homogenised in buffer and a fraction rich in cell membrane proteins was isolated, obtained by centrifugation. […] Aliquots of the said fraction of the homogenate containing 300 μg of total proteins were incubated with scalar amounts of [^3H](+)-pentazocine (which is used, for experimental purposes only, as a a ligand). The reaction was carried out at 37° C. for 150 minutes and then, after filtering, the radioactivity left on the filters was measured by liquid scintillation.
# [3] = test system: intraocular pressure of rabbits showing normal baseline intraocular pressure; assay: Intraocular pressure in rabbits with normal intraocular pressure after topical instillation; assay type: in vivo, rabbit (Vienna Blue, pigmented); settings: 50 μl eye-drops; 0.050% flunarizine, equimolar comparators, 0.5% timolol
# Description: The effects of the agent of the invention on the intraocular pressure of rabbits showing normal baseline intraocular pressure were evaluated in comparison with the action of a placebo, and with that of various other calcium channel blocking agents. Female pigmented rabbits of the Vienna Blue strain were used (supplied by Charles River Italiana, of Calco (CO)). The age of the animals at the time of starting the experimentation was 9 weeks, and their weight was 2.0-2.5 kg.
# The choice of a species with pigmented iris is due to the fact that the latter represents a reliable model for the evaluation of possible modifications of the intraocular pressure caused by the products under test. The strain chosen is genetically defined, so as to limit to a minimum the variability of the biological characteristics between one animal and the other.
# The animals were kept in rooms maintained under constant and controlled conditions of temperature and humidity, illuminated for 12 hours a day with artificial light and with continuous renovation of the air. The feed consisted of a standard diet having a constant and known composition, and both feed and water were available ad libitum during the whole period of the test. The rabbits were stabled for 21 days before starting the test, so as to allow a sufficient acclimatation and to suitably evaluate the health conditions of the rabbits. Each experimental group consisted of 4 animals, which were allotted to the treatment groups in a randomised way.
# Each different group of animals received, by instillation in the right conjunctival fornix, 50 μl of the following products:
# The weight concentrations of the various agents under test are chosen so as to correspond to the same molar concentration.
# The pressure in the treated eye was measured by flattening tonometer (TonopenXL®, Mentor), 15 minutes before the instillation of the eyerops (time 0) and then 30, 60, 90, 120, 180 and 240 minutes after. As a local anaesthetic, 5 minutes before carrying out each measurement 25 μl of a commercial ophthalmic solution containing 0.4% oxybuprocaine hydrochloride (Novesine®, Sandoz) was instilled. To carry out the measurement the rabbits were placed in a suitably designed cage, that prevents any sudden movement of the animal under test.
# For each animal and at each of the times listed above the average of three subsequent measurements was calculated and recorded, each one said measurements being made after 1 minute from the previous one. The intraocular pressure values at the various times were compared with the values obtained before the treatment, by means of the Student's “t” test. The comparisons between different groups were made by processing the data by the variance analysis (ANOVA) and, where possible, by the Student's “t” test for the comparison of two different experimental groups. Values of p<0.05 were considered to be statistically significant.
# [4] = test system: intraocular pressure of rabbits with ocular hypertension; assay: Intraocular pressure in rabbits with ocular hypertension induced by α-chymotrypsin; assay type: in vivo, rabbit (Vienna Blue, pigmented); settings: for Intraocular pressure (mmHg) at the time (min): 30, average ± S.D. / Intraocular pressure (mmHg) at the time (min): 60, average ± S.D. / Intraocular pressure (mmHg) at the time (min): 90, average ± S.D. / Intraocular pressure (mmHg) at the time (min): 120, average ± S.D. / Intraocular pressure (mmHg) at the time (min): 180, average ± S.D. / Intraocular pressure (mmHg) at the time (min): 240, average ± S.D. / Intraocular pressure (mmHg) at the time (min): 0, average ± S.D. / Intraocular pressure (mmHg) at the time (min): 30 / Intraocular pressure (mmHg) at the time (min): 60 / Intraocular pressure (mmHg) at the time (min): 90 / Intraocular pressure (mmHg) at the time (min): 120 / Intraocular pressure (mmHg) at the time (min): 180 / Intraocular pressure (mmHg) at the time (min): 240 / Intraocular pressure (mmHg) at the time (min): 0: Table 4, 50 μl; for Intraocular pressure (mmHg) at the time (min): 30, average ± S.D. / Intraocular pressure (mmHg) at the time (min): 60, average ± S.D. / Intraocular pressure (mmHg) at the time (min): 90, average ± S.D. / Intraocular pressure (mmHg) at the time (min): 120, average ± S.D. / Intraocular pressure (mmHg) at the time (min): 180, average ± S.D. / Intraocular pressure (mmHg) at the time (min): 240, average ± S.D. / Intraocular pressure (mmHg) at the time (min): 0, average ± S.D.: average ± S.D. of 4 rabbits; for Intraocular pressure (mmHg) at the time (min): 30, average ± S.D. / Intraocular pressure (mmHg) at the time (min): 30: 30 min after instillation; for Intraocular pressure (mmHg) at the time (min): 60, average ± S.D. / Intraocular pressure (mmHg) at the time (min): 60: 60 min after instillation; for Intraocular pressure (mmHg) at the time (min): 90, average ± S.D. / Intraocular pressure (mmHg) at the time (min): 90: 90 min after instillation; for Intraocular pressure (mmHg) at the time (min): 120, average ± S.D. / Intraocular pressure (mmHg) at the time (min): 120: 120 min after instillation; for Intraocular pressure (mmHg) at the time (min): 180, average ± S.D. / Intraocular pressure (mmHg) at the time (min): 180: 180 min after instillation; for Intraocular pressure (mmHg) at the time (min): 240, average ± S.D. / Intraocular pressure (mmHg) at the time (min): 240: 240 min after instillation; for Intraocular pressure (mmHg) at the time (min): 0, average ± S.D. / Intraocular pressure (mmHg) at the time (min): 0: time 0 = 15 min before instillation (baseline); for Intraocular pressure (mmHg) at the time (min): 30 / Intraocular pressure (mmHg) at the time (min): 60 / Intraocular pressure (mmHg) at the time (min): 90 / Intraocular pressure (mmHg) at the time (min): 120 / Intraocular pressure (mmHg) at the time (min): 180 / Intraocular pressure (mmHg) at the time (min): 240 / Intraocular pressure (mmHg) at the time (min): 0: individual rabbit, right eye
# Description: Rabbits of the same type as those described in the previous section were used for the following tests.
# In the rabbit, the injection of this enzyme in the posterior chamber causes, after one month from the administration, an effect of ocular hypertension.
# At the end of the quarantine period the rabbits were anaesthetised by intramuscular administration of ketamine hydrochloride and xylazine hydrochloride (RBI). The right eye was gently pushed outwardly after instilling 25 μl of Novesine® eye-drops, containing oxybuprocaine as an anaesthetic; then, a sterile solution of σ-chymotrypsin (SIGMA, Milan; 150 units in 100 μl of physiologic sterile solution) was injected in the posterior chamber of the right eye by means of a 30G sterile needle. After the administration of the enzyme, the eye was thoroughly washed with physiologic sterile solution in order to remove any traces of α-chymotrypsin which could damage the ocular tissues. Then, 2 drops of a commercial ophthalmic antibiotic solution (Colbiocin®, SIFI S.p.A., containing chloramphenicol, rolitetracycline, colistin methanesulphonate) were instilled. The treatment was carried out 3 times a day (at 8.00 a.m., 12.00 a.m. and 6.00 p.m.) for one week after the administration of α-chymotrypsin. The rabbits were employed in the tests after one month from the induction of ocular hypertension by means of the enzyme.
# The rabbits, divided also in this case in groups of 4 animals, were treated by instillation of 50 μl of the product under test in the right conjunctival fornix.
# The intraocular pressure in the treated eye was measured, according to the same procedure as in the previous tests, 15 minutes before the instillation of the eye-drops and 30, 60, 90, 120, 180 and 240 minutes after. The values obtained were statistically analysed according to the criteria mentioned in the foregoing.
# The experimental conditions were exactly the same as before.
# [5] = eye-drops with 0.010% flunarizine
# [6] = eye-drops with 0.050% flunarizine
# [7] = eye-drops with 0.100% flunarizine
structure (smiles),measurement,setting,value
COCCOC(=O)C1=C(C)NC(C)=C(C(=O)OC(C)C)C1c1cccc([N+](=O)[O-])c1 (stereo not shown) [nimodipine],IC50,σ-1 receptors [1],> 10 µM
"CC(C)=CCN1CC[C@]2(C)c3cc(O)ccc3C[C@H]1[C@H]2C [[^3H])(+)-pentazocine, [^3H](+)-pentazocine]",Binding to receptor sites of the iridociliary body region,σ-1 receptors [2],selectively binds to receptor sites
Fc1ccc(C(c2ccc(F)cc2)N2CCN(C/C=C/c3ccccc3)CC2)cc1 [flunarizine],"Effect on intraocular pressure in rabbits with normal pressure, in words",[3],better performance in lowering the intraocular pressure than timolol alone
same,"Effect on intraocular pressure in rabbits with ocular hypertension, in words","[4]; 50 μl eye-drops, 0.050% flunarizine, equimolar comparators, 0.5% timolol",effectiveness comparable to or better than that of timolol alone
same,"Intraocular pressure (mmHg) at the time (min): 30, average ± S.D.",[4]; [5],55.0 ± 5.35 mmHg
same,"Intraocular pressure (mmHg) at the time (min): 60, average ± S.D.",[4]; [5],52.7 ± 5.18 mmHg
same,"Intraocular pressure (mmHg) at the time (min): 90, average ± S.D.",[4]; [5],52.5 ± 5.44 mmHg
same,"Intraocular pressure (mmHg) at the time (min): 120, average ± S.D.",[4]; [5],55.7 ± 5.18 mmHg
same,"Intraocular pressure (mmHg) at the time (min): 180, average ± S.D.",[4]; [5],56.5 ± 6.60 mmHg
same,"Intraocular pressure (mmHg) at the time (min): 240, average ± S.D.",[4]; [5],57.5 ± 6.55 mmHg
same,"Intraocular pressure (mmHg) at the time (min): 0, average ± S.D.",[4]; [5],57.5 ± 6.13 mmHg
same,Intraocular pressure (mmHg) at the time (min): 30,[4]; [5],50 mmHg and 58 mmHg and 61 mmHg and 51 mmHg
same,Intraocular pressure (mmHg) at the time (min): 60,[4]; [5],48 mmHg and 55 mmHg and 59 mmHg and 49 mmHg
same,Intraocular pressure (mmHg) at the time (min): 90,[4]; [5],49 mmHg and 53 mmHg and 60 mmHg and 48 mmHg
same,Intraocular pressure (mmHg) at the time (min): 120,[4]; [5],51 mmHg and 58 mmHg and 62 mmHg and 52 mmHg
same,Intraocular pressure (mmHg) at the time (min): 180,[4]; [5],50 mmHg and 60 mmHg and 64 mmHg and 52 mmHg
same,Intraocular pressure (mmHg) at the time (min): 240,[4]; [5],52 mmHg (2×) and 61 mmHg and 65 mmHg
same,Intraocular pressure (mmHg) at the time (min): 0,[4]; [5],52 mmHg and 60 mmHg and 65 mmHg and 53 mmHg
same,"Intraocular pressure (mmHg) at the time (min): 30, average ± S.D.",[4]; [6],39.5 ± 7.32 mmHg
same,"Intraocular pressure (mmHg) at the time (min): 60, average ± S.D.",[4]; [6],37.7 ± 7.27 mmHg
same,"Intraocular pressure (mmHg) at the time (min): 90, average ± S.D.",[4]; [6],40.7 ± 7.63 mmHg
same,"Intraocular pressure (mmHg) at the time (min): 120, average ± S.D.",[4]; [6],42.2 ± 7.36 mmHg
same,"Intraocular pressure (mmHg) at the time (min): 180, average ± S.D.",[4]; [6],47.0 ± 8.28 mmHg
same,"Intraocular pressure (mmHg) at the time (min): 240, average ± S.D.",[4]; [6],47.2 ± 8.18 mmHg
same,"Intraocular pressure (mmHg) at the time (min): 0, average ± S.D.",[4]; [6],47.7 ± 9.03 mmHg
same,Intraocular pressure (mmHg) at the time (min): 30,[4]; [6],47 mmHg and 38 mmHg and 30 mmHg and 43 mmHg
same,Intraocular pressure (mmHg) at the time (min): 60,[4]; [6],45 mmHg and 37 mmHg and 28 mmHg and 41 mmHg
same,Intraocular pressure (mmHg) at the time (min): 90,[4]; [6],50 mmHg and 38 mmHg and 32 mmHg and 43 mmHg
same,Intraocular pressure (mmHg) at the time (min): 120,[4]; [6],51 mmHg and 39 mmHg and 34 mmHg and 45 mmHg
same,Intraocular pressure (mmHg) at the time (min): 180,[4]; [6],56 mmHg and 44 mmHg and 37 mmHg and 51 mmHg
same,Intraocular pressure (mmHg) at the time (min): 240,[4]; [6],56 mmHg and 45 mmHg and 37 mmHg and 51 mmHg
same,Intraocular pressure (mmHg) at the time (min): 0,[4]; [6],57 mmHg and 46 mmHg and 36 mmHg and 52 mmHg
same,"Intraocular pressure (mmHg) at the time (min): 30, average ± S.D.",[4]; [7],42.2 ± 5.31 mmHg
same,"Intraocular pressure (mmHg) at the time (min): 60, average ± S.D.",[4]; [7],39.2 ± 4.57 mmHg
same,"Intraocular pressure (mmHg) at the time (min): 90, average ± S.D.",[4]; [7],43.0 ± 5.71 mmHg
same,"Intraocular pressure (mmHg) at the time (min): 120, average ± S.D.",[4]; [7],45.0 ± 5.71 mmHg
same,"Intraocular pressure (mmHg) at the time (min): 180, average ± S.D.",[4]; [7],48.5 ± 6.24 mmHg
same,"Intraocular pressure (mmHg) at the time (min): 240, average ± S.D.",[4]; [7],49.7 ± 5.73 mmHg
same,"Intraocular pressure (mmHg) at the time (min): 0, average ± S.D.",[4]; [7],49.7 ± 6.6 mmHg
same,Intraocular pressure (mmHg) at the time (min): 30,[4]; [7],48 mmHg and 40 mmHg and 36 mmHg and 45 mmHg
same,Intraocular pressure (mmHg) at the time (min): 60,[4]; [7],45 mmHg and 38 mmHg and 34 mmHg and 40 mmHg
same,Intraocular pressure (mmHg) at the time (min): 90,[4]; [7],49 mmHg and 41 mmHg and 36 mmHg and 46 mmHg
same,Intraocular pressure (mmHg) at the time (min): 120,[4]; [7],51 mmHg and 43 mmHg and 38 mmHg and 48 mmHg
same,Intraocular pressure (mmHg) at the time (min): 180,[4]; [7],56 mmHg and 47 mmHg and 41 mmHg and 50 mmHg
same,Intraocular pressure (mmHg) at the time (min): 240,[4]; [7],57 mmHg and 49 mmHg and 43 mmHg and 50 mmHg
same,Intraocular pressure (mmHg) at the time (min): 0,[4]; [7],58 mmHg and 48 mmHg and 42 mmHg and 51 mmHg
